# Assay: Evaluation of sublimation of diphenyl tablets versus granules exposed to air
# Format: physicochemical
# Details: 22 days; 1.06 grams substance at start; empty tray 1 3.715 grams (tablets), empty tray 2 3.650 grams (granules)
# Excerpt: Two trays were fashioned from equal sized sheets of aluminum foil and tape. The trays were each weighed after fashioning, with tray 1 weighing 3.715 grams and tray 2 weighing 3.650 grams (a weight difference between trays of 0.065 grams). Two compressed diphenyl tablets handled with tweezers were first weighed at a total weight of 1.06 grams and then placed into tray 1. An equal amount of diphenyl granules (i.e., having a total weight of 1.06 grams) was spooned into tray 2.
# Both trays were exposed to air over 22 days and re-weighed. Tray 1 weighed 4.45 grams and tray 2 weighed 3.99 grams. After adjusting the weight difference of the trays by subtracting 0.065 grams from tray 1, it can be seen that the diphenyl tablets sublimed at a slower rate than the diphenyl granules by retaining 8.88 weight % more than the granules after being exposed to air for 22 days.
smiles,measurement,value
"c1ccc(-c2ccccc2)cc1 [diphenyl granules, diphenyl]",Weight of tray with substance after exposure to air,3.99 grams

# — patent publication US20240147991A1, “Diphenyl Tablets and Methods of Preparing the Same” (Ideaz, LLC, priority 2018, published 2024)
